Reference: ChEMBL document CHEMBL1201862, “PubChem BioAssay data set” (2004)
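1) Cells in 96-well plates. 2) Compound, 48 h, 5 concentrations. 3) Linear interpolation between surrounding doses. 4) Unreached endpoint = highest concentration. Here, GI50 denotes the concentration required for 50% inhibition of growth.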 The source made the active and inactive calls. Cut-off read from the data, not from the text of the source: active = GI50 up to about 1.1 µM and inactive = higher.

Tests used:
Assay in all cases: inhibition of tumour cell growth, NCI panel, 48 h
SN12C = test system: SN12C
SNB-75 = test system: SNB-75
SR = test system: SR
LOX IMVI = test system: LOX IMVI
K562 = test system: K562
A549 = test system: A549
HCT-116 = test system: HCT-116
MDA-MB-231 = test system: MDA-MB-231
OVCAR-5 = test system: OVCAR-5
CCRF-CEM = test system: CCRF-CEM
KM12 = test system: KM12
SK-MEL-2 = test system: SK-MEL-2
M14 = test system: M14
MCF7 = test system: MCF7
CAKI-1 = test system: CAKI-1
XF498 = test system: XF498
DMS-273 = test system: DMS-273
HOP-18 = test system: HOP-18
786-0 = test system: 786-0
LXFL 529 = test system: LXFL 529

SMILES	GI50 (SN12C)	GI50 (SNB-75)	GI50 (SR)	GI50 (LOX IMVI)	GI50 (K562)	GI50 (A549)	GI50 (HCT-116)	GI50 (MDA-MB-231)	GI50 (OVCAR-5)	GI50 (CCRF-CEM)	GI50 (KM12)	GI50 (SK-MEL-2)	GI50 (M14)	GI50 (MCF7)	GI50 (CAKI-1)	GI50 (XF498)	GI50 (DMS-273)	GI50 (HOP-18)	GI50 (786-0)	GI50 (LXFL 529)
CSC1=C(SC)C(=O)c2cn(C)c(=O)cc2C1=O	3.27 µM (inactive)	8.67 µM (inactive)	< 0.0332 µM (active)	1.78 µM (inactive)	0.399 µM (active)	16.1 µM (inactive)	1.81 µM (inactive)	1.87 µM (inactive)	20.2 µM (inactive)	0.245 µM (active)	21.6 µM (inactive)	5.06 µM (inactive)	1.73 µM (inactive)	2.05 µM (inactive)						
CCOC(=O)CN1CCS/C1=N/C#N	> 100 µM (inactive)	> 100 µM (inactive)			> 100 µM (inactive)	> 100 µM (inactive)	> 100 µM (inactive)		4.22 µM (inactive)	> 100 µM (inactive)	> 100 µM (inactive)	> 100 µM (inactive)		> 100 µM (inactive)	> 100 µM (inactive)	> 100 µM (inactive)	> 100 µM (inactive)	> 100 µM (inactive)		
O=C(O)c1cccc(OCCO)c1	> 100 µM (inactive)		> 100 µM (inactive)	> 100 µM (inactive)	> 100 µM (inactive)	> 100 µM (inactive)	> 100 µM (inactive)	> 100 µM (inactive)	> 100 µM (inactive)		> 100 µM (inactive)	> 100 µM (inactive)	> 100 µM (inactive)	> 100 µM (inactive)	> 100 µM (inactive)				> 100 µM (inactive)	
Cc1ccc(C=C(C(=O)O)C(=O)O)o1	> 100 µM (inactive)	> 100 µM (inactive)	> 100 µM (inactive)	> 100 µM (inactive)	> 100 µM (inactive)	> 100 µM (inactive)	> 100 µM (inactive)	> 100 µM (inactive)	> 100 µM (inactive)	> 100 µM (inactive)	> 100 µM (inactive)	> 100 µM (inactive)	> 100 µM (inactive)	> 100 µM (inactive)	> 100 µM (inactive)				> 100 µM (inactive)	
O=NN(CCCl)C(=O)Nc1ccc(Cl)c(Cl)c1	> 100 µM (inactive)	> 100 µM (inactive)		78.5 µM (inactive)	36.9 µM (inactive)	> 100 µM (inactive)	> 100 µM (inactive)		> 67.9 µM (inactive)	59.8 µM (inactive)	> 77.3 µM (inactive)	> 82.2 µM (inactive)		38.5 µM (inactive)	81.1 µM (inactive)	72.8 µM (inactive)	72.8 µM (inactive)			
CSCCC(NOC(=O)Cc1ccccc1)P(=O)(O)c1ccccc1 (stereo not drawn)	> 100 µM (inactive)	> 100 µM (inactive)	> 100 µM (inactive)	> 100 µM (inactive)	> 100 µM (inactive)	> 100 µM (inactive)	> 100 µM (inactive)	> 100 µM (inactive)	> 100 µM (inactive)	> 100 µM (inactive)		> 100 µM (inactive)	> 100 µM (inactive)	> 100 µM (inactive)	> 100 µM (inactive)					
O=C1OC2CC=CC1C2 (stereo not drawn)	> 100 µM (inactive)	> 100 µM (inactive)		> 100 µM (inactive)	> 100 µM (inactive)	> 100 µM (inactive)	> 100 µM (inactive)		> 100 µM (inactive)	> 100 µM (inactive)	> 100 µM (inactive)	> 100 µM (inactive)		> 100 µM (inactive)		> 100 µM (inactive)	> 100 µM (inactive)	> 100 µM (inactive)		
CC1=CC(O)C(O)C2(C)C1CC1OC(=O)C(O)C3C(C)C(O)C4(O)OCC13C42 (stereo not drawn)	236 µM (inactive)	6.18 µM (inactive)		37.8 µM (inactive)	37.2 µM (inactive)	27.9 µM (inactive)	99.5 µM (inactive)		161 µM (inactive)	7.05 µM (inactive)	13.3 µM (inactive)	59.2 µM (inactive)		91.6 µM (inactive)	32.8 µM (inactive)	53.1 µM (inactive)	153 µM (inactive)	155 µM (inactive)		
COC1CCC(CO)OO1 (stereo not drawn)		43.9 µM (inactive)	24.3 µM (inactive)		4.73 µM (inactive)		30.3 µM (inactive)		25.9 µM (inactive)	13.9 µM (inactive)	30.9 µM (inactive)	47.9 µM (inactive)	47.9 µM (inactive)							8.71 µM (inactive)
COc1ccc(NC(=S)NNC(=O)c2nsc3ccccc23)cc1	31.8 µM (inactive)	24.9 µM (inactive)	31 µM (inactive)	34.4 µM (inactive)	30.9 µM (inactive)	37.2 µM (inactive)	28.4 µM (inactive)		> 100 µM (inactive)		37.3 µM (inactive)	25.1 µM (inactive)	17.8 µM (inactive)				26.1 µM (inactive)			39.4 µM (inactive)
